# Patent US20250302768A1, “NANOPARTICLE DOPED POLYETHYLENE GLYCOL BASED GELS AND MEDICAL DEVICES FOR DRUG DELIVERY” (priority 2022, published 2025)
# Legend:
# [1] = drug elution from cured MAPLAPEG gel strips in phosphate buffered saline; assay type: physicochemical; conditions: eluted from MAPLAPEG polymers; 250 mg gel strip in 5 ml phosphate buffered saline; sampled 0.25 to 28 days; n=4
# Method: Methacrylated poly(lactic acid-co-ethylene glycol) (MAPLAPEG) macromers were synthesized with microwave synthesis with a lactate degree of polymerization (DP) of 4 and PEG400 (DP 9.5). Chitosan nanoparticles (CNP) were synthesized using ionic gelation and ketorolac tromethamine was loaded into the CNPs. For polymerization, the MAPLAPEG macromers were mixed with 10 mg/mL Phenylbis(2,4,6-trimethylbenzoyl) phosphine oxide initiator at a ratio of 1 μL each 20 μL of macromer and exposed to UV radiation at 395 nm for two minutes to form a 250 mg gel strip with the dimensions of 5 mm×3 mm×20 mm. The test groups were formed as follows: (1) gel and antibiotic; (2) gel loaded with antibiotic and CNPs; (3) gel loaded with antibiotic and (4) gel and ketorolac loaded CNPs. Gels loaded with only ketorolac loaded CNPs were used as controls for ketorolac elution. […] Eluent concentrations were measured using UV visible spectrometry. Gentamicin sulfate samples were treated with O-phthalaldehyde and the fluorescence was measured after complexation.
# FIGS. 1A-1C depict the release rates of vancomycin, gentamicin and ketorolac from the gels loaded only with antibiotics and those loaded also with particles and those loaded with particles containing ketorolac. […] The sample size for each group was four and standard deviation was calculated for each sample group.
# Staphylococcus aureus = conditions: reference values the eluted concentrations are compared with; cited from earlier work
Compound,time eluted concentration maintained above the MIC [1],minimum inhibitory concentration (MIC) (Staphylococcus aureus)
"CN[C@H](CC(C)C)C(=O)N[C@H]1C(=O)N[C@@H](CC(N)=O)C(=O)N[C@H]2C(=O)N[C@H]3C(=O)N[C@H](C(=O)N[C@H](C(=O)O)c4cc(O)cc(O)c4-c4cc3ccc4O)[C@H](O)c3ccc(c(Cl)c3)Oc3cc2cc(c3O[C@@H]2O[C@H](CO)[C@@H](O)[C@H](O)[C@H]2O[C@H]2C[C@](C)(N)[C@H](O)[C@H](C)O2)Oc2ccc(cc2Cl)[C@H]1O [Vancomycin, vancomycin]",4 weeks,0.5 to 2 µg/mL
gentamicin,4 weeks,1.5 to 3 µg/mL
